From article PMC8701318, “LC-QTOF-MS/MS Based Molecular Networking Approach for the Isolation of α-Glucosidase Inhibitors and Virucidal Agents from Coccinia grandis (L.) Voigt” (Foods, 2021)

Tests used:
influenza A virus H1N1 = assay: Virucidal activity, ASTM E1053-20 method; format: cell-based; conditions: for Virucidal Activity Log Reduction: 10 min exposure
α-glucosidase = system: α-glucosidase; parameters: method as in PMID 24125526; conditions: isolated from leaves of Morus atropurpurea; cited from earlier work
hepatitis C virus = system: hepatitis C virus; parameters: method as in PMID 28638096; conditions: cited from earlier work
[1] = Cytotoxicity in MDCK cells by the MTT assay; conditions: dog
[2] = target: α-Glucosidase enzyme (Saccharomyces cerevisiae); assay: In-vitro α-glucosidase inhibitory assay (p-NPG substrate); conditions: read-out: α-Glucosidase Inhibitory Activity, IC50; mean ± s.d. of a triplicate experiment
Description: The α-glucosidase assay was performed as described by Liu et al. [21] with slight modification. The reaction mixture consisting of 50 µL of potassium phosphate buffer (PBS, 0.1 M, pH 6.8) and 20 µL of α-glucosidase (0.5 U/mL) was pre-incubated with 20 µL of the test sample at 37 °C for 15 min in a 96-well plate. The mixture was added 20 µL p-NPG (1 mM) and incubated again at 37 °C for 15 min. A total of 50 µL of Na2CO3 (0.2 M) was added to terminate the enzymatic activity. The absorbance value of each well was measured immediately using a microplate reader at 405 nm. […] All glycosides were dissolved in 50% DMSO, while a crude extract was dissolved in 100% DMSO. The experiment was performed in triplicate. The enzyme inhibition rate was calculated as follows:(1) [1−(ODsample−ODsample blank)/(ODcontrol−ODblank)] × 100 where ODsample represents the absorbance of PBS + enzyme + sample + p-NPG; ODsample blank represents the absorbance of PBS + sample; ODcontrol represents the absorbance of PBS + enzyme + solvent + p-NPG; ODblank represents the absorbance of PBS + solvent. The inhibitory activity is expressed as IC50 (half minimal inhibitory concentration) value. Data were normalized, and the IC50 values were calculated using GraphPad Prism 9.2.0.

[3] = system: dengue virus serine protease; parameters: method as in PMID 32107969; conditions: cited from earlier work
[4] = parameters: method as in earlier work; conditions: isolated from cottonseeds; cited from earlier work
[5] = system: hippocampal neural progenitor cells; parameters: method as in PMID 19326568; conditions: possibly via the 5-HT1A receptor; cited from earlier work
[6] = mice model; cited from earlier work

**Q.** For `C[C@@H]1O[C@@H](OC[C@H]2O[C@@H](Oc3c(-c4ccc(O)c(O)c4)oc4cc(O)cc(O)c4c3=O)[C@H](O)[C@@H](O)[C@@H]2O)[C@H](O)[C@H](O)[C@H]1O` [Compound 1, rutin], which “Virucidal Activity Log Reduction” value (influenza A virus H1N1; 3.9 µg/mL) is on record?
**A.** 1.20 ± 0.025 Log

**Q.** And the “Virucidal Activity Log Reduction” value (influenza A virus H1N1; 7.8 µg/mL)?
**A.** 1.32 ± 0.032 Log

**Q.** What about the “Virucidal Activity Log Reduction” value (influenza A virus H1N1; 15.6 µg/mL) of the same compound?
**A.** 1.34 ± 0.044 Log

**Q.** And the “Virucidal Activity Log Reduction” value (influenza A virus H1N1; 31.3 µg/mL)?
**A.** 1.34 ± 0.030 Log

**Q.** And the “Virucidal Activity Log Reduction” value (influenza A virus H1N1; 62.5 µg/mL)?
**A.** 1.52 ± 0.045 Log

**Q.** What about the “Virucidal Activity Log Reduction” value (influenza A virus H1N1; 125.0 µg/mL) of the same compound?
**A.** 1.80 ± 0.105 Log

**Q.** And the “α-glucosidase inhibitory activity (in words)” value (α-glucosidase)?
**A.** α-glucosidase inhibitory activity

**Q.** And the “hepatitis C virus entry inhibition (in words)” value (hepatitis C virus)?
**A.** potent hepatitis C virus entry inhibitor

**Q.** What about the viability at 3.9 µg/mL [1] of the same compound?
**A.** 99.3 ± 3.45%

**Q.** And the viability at 7.8 µg/mL [1]?
**A.** 97.8 ± 0.31%

**Q.** What about the viability at 15.6 µg/mL [1] of the same compound?
**A.** 94.7 ± 3.93%

**Q.** And the viability at 31.3 µg/mL [1]?
**A.** 86.5 ± 2.16%

**Q.** And the viability at 62.5 µg/mL [1]?
**A.** 83.8 ± 2.02%

**Q.** And the viability at 125 µg/mL [1]?
**A.** 77.2 ± 1.28%

**Q.** What about the IC50 [2] of the same compound?
**A.** 243 ± 5.29 µM

**Q.** With `C[C@@H]1O[C@@H](OC[C@H]2O[C@@H](Oc3c(-c4ccc(O)cc4)oc4cc(O)cc(O)c4c3=O)[C@H](O)[C@@H](O)[C@@H]2O)[C@H](O)[C@H](O)[C@H]1O` [Compound 2, kaempferol 3-O-rutinoside] as the compound, how does the “Virucidal Activity Log Reduction” value (influenza A virus H1N1; 3.9 µg/mL) read?
**A.** 1.66 ± 0.071 Log

**Q.** What about the “Virucidal Activity Log Reduction” value (influenza A virus H1N1; 7.8 µg/mL) of the same compound?
**A.** 1.65 ± 0.084 Log

**Q.** And the “Virucidal Activity Log Reduction” value (influenza A virus H1N1; 15.6 µg/mL)?
**A.** 1.66 ± 0.071 Log

**Q.** What about the “Virucidal Activity Log Reduction” value (influenza A virus H1N1; 31.3 µg/mL) of the same compound?
**A.** 1.68 ± 0.046 Log

**Q.** What about the “Virucidal Activity Log Reduction” value (influenza A virus H1N1; 62.5 µg/mL) of the same compound?
**A.** 1.82 ± 0.091 Log

**Q.** What about the “Virucidal Activity Log Reduction” value (influenza A virus H1N1; 125.0 µg/mL) of the same compound?
**A.** 1.95 ± 0.124 Log

**Q.** What about the “α-glucosidase inhibitory activity (in words)” value (α-glucosidase) of the same compound?
**A.** α-glucosidase inhibitory activity

**Q.** And the “inhibition of dengue virus serine protease (in words)” value [3]?
**A.** strong inhibition

**Q.** What about the viability at 3.9 µg/mL [1] of the same compound?
**A.** 98.1 ± 1.34%

**Q.** And the viability at 7.8 µg/mL [1]?
**A.** 96.3 ± 5.13%

**Q.** And the viability at 15.6 µg/mL [1]?
**A.** 92.3 ± 1.95%

**Q.** And the viability at 31.3 µg/mL [1]?
**A.** 88.5 ± 2.67%

**Q.** And the viability at 62.5 µg/mL [1]?
**A.** 86.5 ± 3.82%

**Q.** And the viability at 125 µg/mL [1]?
**A.** 78 ± 1.75%

**Q.** And the IC50 [2]?
**A.** 236 ± 27.7 µM

**Q.** What does the source list for `C[C@@H]1O[C@@H](OC[C@H]2O[C@@H](Oc3c(-c4ccc(O)cc4)oc4cc(O)cc(O)c4c3=O)[C@H](O)[C@@H](O)[C@H]2O)[C@H](O)[C@H](O)[C@H]1O` [Compound 3, kaempferol 3-O-alpha-L-rhamnopyranosyl-(1→6)-beta-D-galactopyranoside]?
**A.** Virucidal Activity Log Reduction (influenza A virus H1N1; 3.9 µg/mL): 1.63 ± 0.069 Log; Virucidal Activity Log Reduction (influenza A virus H1N1; 7.8 µg/mL): 1.66 ± 0.071 Log; Virucidal Activity Log Reduction (influenza A virus H1N1; 15.6 µg/mL): 1.91 ± 0.062 Log; Virucidal Activity Log Reduction (influenza A virus H1N1; 31.3 µg/mL): 1.95 ± 0.124 Log; Virucidal Activity Log Reduction (influenza A virus H1N1; 62.5 µg/mL): 1.91 ± 0.062 Log; Virucidal Activity Log Reduction (influenza A virus H1N1; 125.0 µg/mL): 1.98 ± 0.088 Log; reduction of virus (influenza A virus H1N1; 31.3 and 15.6 µg/mL): 99%; virucidal Log reduction (influenza A virus H1N1; 31.3 and 15.6 µg/mL): around 1.9 Log; viability at 3.9 µg/mL [1]: 95.6 ± 6.25%; viability at 7.8 µg/mL [1]: 92.8 ± 4.84%; viability at 15.6 µg/mL [1]: 89.7 ± 0.82%; viability at 31.3 µg/mL [1]: 88.7 ± 0.21%; viability at 62.5 µg/mL [1]: 83.6 ± 0.74%; viability at 125 µg/mL [1]: 73.3 ± 0.9%; IC50 [2]: 195 ± 18.1 µM

**Q.** Which “Virucidal Activity Log Reduction” value (influenza A virus H1N1; 15.6 µg/mL) does the source give for `C[C@@H]1O[C@@H](OC[C@H]2O[C@@H](Oc3c(-c4ccc(O)c(O)c4)oc4cc(O)cc(O)c4c3=O)[C@H](O[C@@H]3OCC(O)(CO)[C@H]3O)[C@@H](O)[C@@H]2O)[C@H](O)[C@H](O)[C@H]1O` (stereo partly drawn) [Compound 5, quercetin 3-O-β-D-apiofuranosyl-(1→2)-[α-L-rhamnopyranosyl-(1→6)]-β-D-glucopyranoside] here?
**A.** 1.87 ± 0.072 Log

**Q.** What about the “Virucidal Activity Log Reduction” value (influenza A virus H1N1; 31.3 µg/mL) of the same compound?
**A.** 1.84 ± 0.108 Log

**Q.** And the “Virucidal Activity Log Reduction” value (influenza A virus H1N1; 62.5 µg/mL)?
**A.** 1.90 ± 0.062 Log

**Q.** What about the “Virucidal Activity Log Reduction” value (influenza A virus H1N1; 125.0 µg/mL) of the same compound?
**A.** 1.97 ± 0.088 Log

**Q.** And the “Virucidal Activity Log Reduction” value (influenza A virus H1N1; 250.0 µg/mL)?
**A.** 2.01 ± 0.239 Log

**Q.** What about the “Virucidal Activity Log Reduction” value (influenza A virus H1N1; 500.0 µg/mL) of the same compound?
**A.** 2.11 ± 0.198 Log

**Q.** What about the reduction of virus (influenza A virus H1N1; 500.0 and 250.0 µg/mL) of the same compound?
**A.** 99%

**Q.** And the “virucidal Log reduction” value (influenza A virus H1N1; 500.0 and 250.0 µg/mL)?
**A.** 1.93–2.41 Log

**Q.** What about the “antidepressant and cytoprotective effects (in words)” value [4] of the same compound?
**A.** antidepressant and cytoprotective effects

**Q.** And the “proliferation of hippocampal neural progenitor cells (in words)” value [5]?
**A.** could enhance the proliferation

**Q.** And the “absorption and tissue distribution (in words)” value [6]?
**A.** could be absorbed and distributed into tissues

**Q.** What about the viability at 15.6 µg/mL [1] of the same compound?
**A.** 95.8 ± 4.22%

**Q.** And the viability at 31.3 µg/mL [1]?
**A.** 94.1 ± 1.85%

**Q.** What about the viability at 62.5 µg/mL [1] of the same compound?
**A.** 90 ± 3.08%

**Q.** And the viability at 125 µg/mL [1]?
**A.** 85.8 ± 2.87%

**Q.** What about the viability at 250 µg/mL [1] of the same compound?
**A.** 83.7 ± 1.2%

**Q.** What about the viability at 500 µg/mL [1] of the same compound?
**A.** 82.9 ± 2.06%

**Q.** And the IC50 [2]?
**A.** 431 ± 17.6 µM

**Q.** Which results are given for `C[C@@H]1O[C@@H](OC[C@H]2O[C@@H](Oc3c(-c4ccc(O)cc4)oc4cc(O)cc(O)c4c3=O)[C@H](O[C@@H]3OCC(O)(CO)[C@H]3O)[C@@H](O)[C@@H]2O)[C@H](O)[C@H](O)[C@H]1O` (stereo partly drawn) [Compound 6, kaempferol 3-O-β-D-apiofuranosyl-(1→2)-[α-L-rhamnopyranosyl-(1→6)]-β-D-glucopyranoside]?
**A.** Virucidal Activity Log Reduction (influenza A virus H1N1; 15.6 µg/mL): 1.93 ± 0.124 Log; Virucidal Activity Log Reduction (influenza A virus H1N1; 31.3 µg/mL): 1.93 ± 0.124 Log; Virucidal Activity Log Reduction (influenza A virus H1N1; 62.5 µg/mL): 1.93 ± 0.124 Log; Virucidal Activity Log Reduction (influenza A virus H1N1; 125.0 µg/mL): 1.93 ± 0.124 Log; Virucidal Activity Log Reduction (influenza A virus H1N1; 250.0 µg/mL): 1.93 ± 0.124 Log; Virucidal Activity Log Reduction (influenza A virus H1N1; 500.0 µg/mL): 1.97 ± 0.042 Log; reduction of virus (influenza A virus H1N1; 500.0 and 250.0 µg/mL): 99%; virucidal Log reduction (influenza A virus H1N1; 500.0 and 250.0 µg/mL): 1.93–2.41 Log; viability at 15.6 µg/mL [1]: 97 ± 2.99%; viability at 31.3 µg/mL [1]: 95.7 ± 1.63%; viability at 62.5 µg/mL [1]: 93.7 ± 4.87%; viability at 125 µg/mL [1]: 89.5 ± 0.83%; viability at 250 µg/mL [1]: 88.6 ± 0.43%; viability at 500 µg/mL [1]: 86.4 ± 2.06%; IC50 [2]: 456 ± 26 µM

**Q.** Which IC50 [2] does the source give for `C[C@@H]1O[C@@H](OC[C@H]2O[C@@H](Oc3c(-c4ccc(O)cc4)oc4cc(O)cc(O)c4c3=O)[C@H](O[C@@H]3OCC(O)(CO)[C@H]3O)[C@@H](O)[C@H]2O)[C@H](O)[C@H](O)[C@H]1O` (stereo partly drawn) [Compound 7, kaempferol 3-O-β-D-apiofuranosyl-(1→2)-[α-L-rhamnopyranosyl-(1→6)]-β-D-galactopyranoside] here?
**A.** 432 ± 18.9 µM
